Measured values from patent US7968725B2, “Pyridinyl modulators of γ-secretase” (Janssen Pharmaceutica N.V., priority 2008, dated 2011).

Molecular target: T1, γ-secretase (Homo sapiens, UniProt P49768)
T1 construct: endogenous in cells; host or cells: SKNBE2 cells carrying APP 695 wild type
Test: Screening for γ-secretase-modulating activity in SKNBE2 cells carrying the APP 695-wild type (assay per Citron et al 1997)
Type: cell-based
Conditions: SKNBE2 cells carrying APP 695-wild type
Protocol: Screening of the Compounds of the Invention for γ-Secretase-Modulating Activity
Screening was carried out using SKNBE2 cells carrying the APP 695-wild type, grown in DMEM/NUT-mix F12 (HAM) provided by Gibco (cat no. 31330-38) containing 5% Serum/Fe supplemented with 1% non-essential amino acids.
Cells were grown to near confluency.
The screening was performed using the assay as described in Citron et al (1997) Nature Medicine 3: 67.

Structure (SMILES): CC(C)COc1cccc(-c2cc(C(CC(C)C)C(=O)O)cc(-c3ccc(C(F)(F)F)cc3)n2)c1 (stereo not drawn) [Example 36, 2-[2-(3-Isobutoxy-phenyl)-6-(4-trifluoromethyl-phenyl)-pyridin-4-yl]-4-methyl-pentanoic acid]
- inhibition at 1 µM: 41%

Structure (SMILES): CC(C)CC(C(=O)O)c1cc(-c2ccc(Oc3ccccc3)cc2)nc(-c2ccc(C(F)(F)F)cc2)c1 (stereo not drawn) [Example 37, 4-Methyl-2-[2-(4-phenoxy-phenyl)-6-(4-trifluoromethyl-phenyl)-pyridin-4-yl]-pentanoic acid]
- inhibition at 1 µM: 73%

Structure (SMILES): CC(C)CC(C(=O)O)c1cc(-c2ccccc2)nc(-c2ccc(C(F)(F)F)cc2)c1 (stereo not drawn) [Example 38, 4-Methyl-2-[2-phenyl-6-(4-trifluoromethyl-phenyl)-pyridin-4-yl]-pentanoic acid]
- inhibition at 1 µM: 8%

Structure (SMILES): CC(C)CC(C(=O)O)c1cc(-c2ccc(C(F)(F)F)cc2)nc(-c2ccc(S(C)(=O)=O)cc2)c1 (stereo not drawn) [Example 39, 2-[2-(4-Methanesulfonyl-phenyl)-6-(4-trifluoromethyl-phenyl)-pyridin-4-yl]-4-methyl-pentanoic acid]
- inhibition at 1 µM: 18%

Structure (SMILES): CC(C)CC(C(=O)O)c1cc(-c2ccc(C(F)(F)F)cc2)nc(N(CC(C)C)c2ccc(C(F)(F)F)cc2)c1 (stereo not drawn) [Example 40, 2-[2-[Isobutyl-(4-trifluoromethyl-phenyl)-amino]-6-(4-trifluoromethyl-phenyl)-pyridin-4-yl]-4-methyl-pentanoic acid]
- EC50: 340 nM

Structure (SMILES): CC(C)CCN(c1ccc(C(F)(F)F)cc1)c1cc(C(CC(C)C)C(=O)O)cc(-c2ccc(C(F)(F)F)cc2)n1 (stereo not drawn) [Example 41, 4-Methyl-2-[2-[(3-methyl-butyl)-(4-trifluoromethyl-phenyl)-amino]-6-(4-trifluoromethyl-phenyl)-pyridin-4-yl]-pentanoic acid]
- EC50: 300 nM

Structure (SMILES): CC(C)CCN(c1ccc(C(F)(F)F)cc1)c1cc(CC(=O)O)cc(-c2ccc(C(F)(F)F)cc2)n1 [Example 42, [2-[(3-Methyl-butyl)-(4-trifluoromethyl-phenyl)-amino]-6-(4-trifluoromethyl-phenyl)-pyridin-4-yl]-acetic acid]
- inhibition at 1 µM: 36%

Structure (SMILES): O=C(O)Cc1cc(-c2ccc(C(F)(F)F)cc2)nc(N(CCC2CCCCC2)c2ccc(C(F)(F)F)cc2)c1 [Example 43, [2-[(2-Cyclohexyl-ethyl)-(4-trifluoromethyl-phenyl)-amino]-6-(4-trifluoromethyl-phenyl)-pyridin-4-yl]-acetic acid]
- inhibition at 1 µM: 56%

Structure (SMILES): CC(C)CC(C(=O)O)c1cc(-c2ccc(C(F)(F)F)cc2)nc(N(CCC2CCCCC2)c2ccc(C(F)(F)F)cc2)c1 (stereo not drawn) [Example 44, 2-[2-[(2-Cyclohexyl-ethyl)-(4-trifluoromethyl-phenyl)-amino]-6-(4-trifluoromethyl-phenyl)-pyridin-4-yl]-4-methyl-pentanoic acid]
- EC50: 640 nM

Structure (SMILES): CC(C)CC(C(=O)O)c1cc(-c2ccc(C(F)(F)F)cc2)nc(N(CCN2CCCCC2)c2ccc(C(F)(F)F)cc2)c1 (stereo not drawn) [Example 45, 4-Methyl-2-[2-[(2-piperidin-1-yl-ethyl)-(4-trifluoromethyl-phenyl)-amino]-6-(4-trifluoromethyl-phenyl)-pyridin-4-yl]-pentanoic acid]
- inhibition at 1 µM: 20%

Structure (SMILES): CC(C)CCN(c1ccc(C(C)(C)C)cc1)c1cc(C(CC(C)C)C(=O)O)cc(-c2ccc(C(F)(F)F)cc2)n1 (stereo not drawn) [Example 46, 2-[2-[(4-tert-Butyl-phenyl)-(3-methyl-butyl)-amino]-6-(4-trifluoromethyl-phenyl)-pyridin-4-yl]-4-methyl-pentanoic acid]
- inhibition at 1 µM: 22%

Structure (SMILES): CC(C)CCN(c1ccc(C(C)(C)C)cc1)c1cc(CC(=O)O)cc(-c2ccc(C(F)(F)F)cc2)n1 [Example 47, [2-[(4-tert-Butyl-phenyl)-(3-methyl-butyl)-amino]-6-(4-trifluoromethyl-phenyl)-pyridin-4-yl]-acetic acid]
- EC50: 1290 nM
